Laboratory results published in patent publication US20190183963A1, “PROCESS FOR THE SYNCHRONIZATION OF OVULATION FOR TIMED BREEDING WITHOUT HEAT DETECTION” (priority 2003, published 2019).

Key:
Assay type in all cases: in vivo, swine
[1] = system: ovariectomized estrogen primed gilt model; assay: Dose response study of deslorelin in SAIB, LH release determined by RIA; conditions: single injection of 50 mcg
Description: A dose response study was performed using deslorelin in SAIB in an ovariectomized estrogen primed gilt model (Barb, et al. (1999) Proceed. Int'l. Symp. Control. Rel. Bioact. Mater., 26).

mature postpartum sows = assay: Intravulvar deslorelin in SAIB at estrus detection, AI breeding of mature postpartum sows; conditions: 50 μg intravulvar at first estrus detection
Description: Sows were assigned randomly in blocks of two to either control or to be injected intravulvar with 50 mcg of deslorelin in SAIB at the time of estrus detection for sows first detected in estrus in the a.m. and 12 hours later for those first detected in estrus in the p.m. Treated animals were bred AI upon detected estrus and again 24 hours later if still in estrus. Controls received a saline injection on first detected estrus behavior estrus detection and were bred according to the farm's normal procedures.

postpartum sows = assay: Single timed deslorelin in SAIB injection 96 hours post-weaning, single timed insemination without estrus detection
Description: Approximately 170 postpartum sows were randomly divided into two equal groups comprised of controls and treated. Following weaning, the controls were detected for estrus and bred following the normal standard operating procedures for the farms on which they resided. The treated sows received a 50 mcg dose of deslorelin in SAIB at 96 hours post-weaning and were bred with a single insemination 28+/−2 hours later with no regard to estrus detection. The sows were examined for pregnancy by ultrasound at 21 days and slaughtered around 28 days post breeding. The entire reproductive tract was removed and corpora lutea and embryos were counted.

## CCNC(=O)[C@@H]1CCCN1C(=O)[C@H](CCCN=C(N)N)NC(=O)[C@H](CC(C)C)NC(=O)[C@@H](Cc1c[nH]c2ccccc12)NC(=O)[C@H](Cc1ccc(O)cc1)NC(=O)[C@H](CO)NC(=O)[C@H](Cc1c[nH]c2ccccc12)NC(=O)[C@H](Cc1cnc[nH]1)NC(=O)[C@@H]1CCC(=O)N1 [Deslorelin, deslorelin]
[1]
  time at which LH returned to base level: ≤ 18 h
[1]; normal value from Hansel et al. 1973
  LH peak relative to normal value: about twice normal value
Mature postpartum sows; AI, AI again if in estrus the next day
  Length of Estrus (Hrs.): 40.81 (n = 69) Hrs.
Mature postpartum sows; difference to saline control, listed as deslorelin in SAIB
  Live piglet number per litter, greater in Deslorelin versus Saline sows: 0.6
Postpartum sows; 50 mcg at 96 hours post-weaning, single insemination 28+/-2 hours later, 84 in group, ultrasound at 21 days
  Sows Pregnant: 60
Postpartum sows; single timed injection post-weaning, single timed insemination, no estrus detection
  pregnancy rates (in words): normal pregnancy rates
